Test results reported in patent publication US20130224236A1, “HSV-1 EPITOPES AND METHODS FOR USING SAME” (UNIVERSITY OF WASHINGTON, priority 2010, published 2013).

B1: UL40: HSV-1 protein UL40 (protein)
chain: MDSAAPALSPALTALTDQSATADLAIQIPKCPDPERYFYTSQCPDINHLRSLSILNRWLETELVFVGDEEDVSKLSEGELSFYRFLFAFLSAADDLVTENLGGLSGLFEQKDILHYYVEQECIEVVHSRVYNIIQLVLFHNNDQARREYVAGTINHPAIRAKVDWLEARVRECASVPEKFILMILIEGIFFAASFAAIAYLRTNNLLRVTCQSNDLISRDEAVHTTASCYIYNNYLGGHAKPPPDRVYGLFRQAVEIEIGFIRSQAPTDSHILSPAALAAIENYVRFSADRLLGLIHMKPLFSAPPPDASFPLSLMSTDKHTNFFECRSTSYAGAVVNDL
modifications: human herpesvirus 1
notes: HSV-1 protein UL40
B2: UL39: HSV-1 UL39/ICP6/10, large subunit of ribonucleotide reductase (protein)
chain: MASRPAASSPVEARAPVGGQEAGGPSAATQGEAAGAPLAHGHHVYCQRVNGVMVLSDKTPGSASYRISDNNFVQCGSNCTMIIDGDVVRGRPQDPGAAASPAPFVAVTNIGAGSDGGTAVVAFGGTPRRSAGTSTGTQTADVPTEALGGPPPPPRFTLGGGCCSCRDTRRRSAVFGGEGDPVGPAEFVSDDRSSDSDSDDSEDTDSETLSHASSDVSGGATYDDALDSDSSSDDSLQIDGPVCRPWSNDTAPLDVCPGTPGPGADAGGPSAVDPHAPTPEAGAGLAADPAVARDDAEGLSDPRPRLGTGTAYPVPLELTPENAEAVARFLGDAVNREPALMLEYFCRCAREETKRVPPRTFGSPPRLTEDDFGLLNYALVEMQRLCLDVPPVPPNAYMPYYLREYVTRLVNGFKPLVSRSARLYRILGVLVHLRIRTREASFEEWLRSKEVALDFGLTERLREHEAQLVILAQALDHYDCLIHSTPHTLVERGLQSALKYEEFYLKRFGGHYMESVFQMYTRIAGFLACRATRGMRHIALGREGSWWEMFKFFFHRLYDHQIVPSTPAMLNLGTRNYYTSSCYLVNPQATTNKATLRAITSNVSAILARNGGIGLCVQAFNDSGPGTASVMPALKVLDSLVAAHNKESARPTGACVYLEPWHTDVRAVLRMKGVLAGEEAQRCDNIFSALWMPDLFFKRLIRHLDGEKNVTWTLFDRDTSMSLADFHGEEFEKLYQHLEVMGFGEQIPIQELAYGIVRSAATTGSPFVMFKDAVNRHYIYDTQGAAIAGSNLCTEIVHPASKRSSGVCNLGSVNLARCVSRQTFDFGRLRDAVQACVLMVNIMIDSTLQPTPQCTRGNDNLRSMGIGMQGLHTACLKLGLDLESAEFQDLNKHIAEVMLLSAMKTSNALCVRGARPFNHFKRSMYRAGRFHWERFPDARPRYEGEWEMLRQSMMKHGLRNSQFVALMPTAASAQISDVSEGFAPLFTNLFSKVTRDGETLRPNTLLLKELERTFSGKRLLEVMDSLDAKQWSVAQALPCLEPTHPLRRFKTAFDYDQKLLIDLCADRAPYVDHSQSMTLYVTEKADGTLPASTLVRLLVHAYKRGLKTGMYYCKVRKATNSGVFGGDDNIVCMSCAL
modifications: human herpesvirus 1
notes: HSV-1 UL39/ICP6/10, large subunit of ribonucleotide reductase
B3: UL53: HSV-1 protein UL53/Glycoprotein K (protein)
chain: MLAVRSLQHLSTVVLITAYGLVLVWYTVFGASPLHRCIYAVRPTGTNNDTALVWMKMNQTLLFLGAPTHPPNGGWRNHAHICYANLIAGRVVPFQVPPDAMNRRIMNVHEAVNCLETLWYTRVRLVVVGWFLYLAFVALHQRRCMFGVVSPAHKMVAPATYLLNYAGRIVSSVFLQYPYTKITRLLCELSVQRQNLVQLFETDPVTFLYHRPAIGVIVGCELMLRFVAVGLIVGTAFISRGACAITYPLFLTITTWCFVSTIGLTELYCILRRGPAPKNADKAAAPGRSKGLSGVCGRCCSIILSGIAVRLCYIAVVAGVVLVALHYEQEIQRRLFDV
modifications: human herpesvirus 1
notes: HSV-1 protein UL53/Glycoprotein K
B4: UL13: HSV-1 protein UL13 (protein)
chain: MDESRRQRPAGHVAANLSPQGARQRSFKDWLASYVHSNPHGASGRPSGPSLQDAAVSRSSHGSRHRSGLRERLRAGLSRWRMSRSSHRRASPETPGTAAKLNRPPLRRSQAALTAPPSSPSHILTLTRIRKLCSPVFAINPALHYTTLEIPGARSFGGSGGYGDVQLIREHKLAVKTIKEKEWFAVELIATLLVGECVLRAGRTHNIRGFIAPLGFSLQQRQIVFPAYDMDLGKYIGQLASLRTTNPSVSTALHQCFTELARAVVFLNTTCGISHLDIKCANILVMLRSDAVSLRRAVLADFSLVTLNSNSTIARGQFCLQEPDLKSPRMFGMPTALTTANFHTLVGHGYNQPPELLVKYLNNERAEFTNHRLKHDVGLAVDLYALGQTLLELVVSVYVAPSLGVPVTRFPGYQYFNNQLSPDFALALLAYRCVLHPALFVNSAETNTHGLAYDVPEGIRRHLRNPKIRRAFTDRCINYQHTHKAILSSVALPPELKPLLVLVSRLCHTNPCARHALS
modifications: human herpesvirus 1
notes: HSV-1 protein UL13
B5: US1/1.5: HSV-1 protein US1/ICP22 (protein)
chain: MADISPGAFAPCVKARRPALRSPPLGTRKRKRPSRPLSSESEVESDTALESEVESETASDSTESGDQDEAPRIGGRRAPRRLGGRFFLDMSAESTTGTETDASVSDDPDDTSDWSYDDIPPRPKRARVNLRLTSSPDRRDGVIFPKMGRVRSTRETQPRAPTPSAPSPNAMLRRSVRQAQRRSSARWTPDLGYMRQCINQLFRVLRVARDPHGSANRLRHLIRDCYLMGYCRARLAPRTWCRLLQVSGGTWGMHLRNTIREVEARFDATAEPVCKLPCLETRRYGPECDLSNLEIHLSATSDDEISDATDLEAAGSDHTLASQSDTEDAPSPVTLETPEPRGSLAVRLEDEFGEFDWTPQEGSQPWLSAVVADTSSVERPGPSDSGAGRAAEDRKCLDGCRKMRFSTACPYPCSDTFLRP
modifications: human herpesvirus 1
notes: HSV-1 protein US1/ICP22
B6: UL21: HSV-1 protein UL21 (protein)
chain: MELSYATTMHYRDVVFYVTTDRNRAYFVCGGCVYSVGRPCASQPGEIAKFGLVVRGTGPDDRVVANYVRSELRQRGLQDVRPIGEDEVFLDSVCLLNPNVSSELDVINTNDVEVLDECLAEYCTSLRTSPGVLISGLRVRAQDRIIELFEHPTIVNVSSHFVYTPSPYVFALAQAHLPRLPSSLEALVSGLFDGIPAPRQPLDAHNPRTDVVITGRRAPRPIAGSGAGSGGAGAKRATVSEFVQVKHIDRVGPAGVSPAPPPNNTDSSSLVPGAQDSAPPGPTLRELWWVFYAADRALEEPRADSGLTREEVRAVRGFREQAWKLFGSAGAPRAFIGAALGLSPLQKLAVYYYIIHRERRLSPFPALVRLVGRYTQRHGLYVPRPDDPVLADAINGLFRDALAAGTTAEQLLMFDLLPPKDVPVGSDVQADSTALLRFIESQRLAVPGGVISPEHVAYLGAFLSVLYAGRGRMSAATHTARLTGVTSLVLAVGDVDRLSAFDRGAAGAASRTRAAGYLDVLLTVRLARSQHGQSV
modifications: human herpesvirus 1
notes: HSV-1 protein UL21

Tests used:
[1] = test system: bulk polyclonal CD8 effector cells; experiment: ORFeome CD8 screen: IFN-γ ELISA after adding CD8 responders to Cos-7 aAPC co-transfected with HLA class I cDNA and HSV-1 ORF; type: cell-based, human; settings: for CD8 IFN-γ responses to HSV-1 polypeptide (ORF level): amongst the 7 participants, HLA A, B, C screens; for HLA A*0101-bearing donors with CD8 T cells recognizing the ORF: primary co-transfection screens with shared HLA cDNA; for CD8 reactivity restricted by HLA A*0101: participant 1
[2] = test system: CD4+ clone 9447.28 specific for HSV-1 VP22 AA 199-211; experiment: 3H thymidine proliferation check of expressed VP22 with a CD4 T-cell clone; type: cell-based, human; settings: pEXP203 in vitro expressed protein
Protocol: For expression, pEXP203 plasmids were prepared from a 3 ml ampicillin culture of transformed E. coli using a silica method (Qiagen) and mass determined by spectrophotometry. Protein expression used 50 μl volumes of the Expressionway E. coli system (Invitrogen). To check expression, 1 μl of reaction product was spotted onto nitrocellulose membranes (Whatman, Piscataway, N.J.), air-dried, blocked with 1% blocking reagent (Roche) diluted in TBS (50 mM Tris, 150 mM NaCl, pH 7.5), probed with anti-6-His mAb (Roche) diluted 1:500 in TBS-0.1% Tween −20 (TBS-T) (Roche), washed with TBS-T, incubated with horseradish peroxidase-conjugated anti-mouse IgG (Promega) diluted 1:2500 in TBS-T, washed with TBS-T, and developed with TMB substrate (Promega). Proteins failing to display a spot indicating anti-6-His binding were re-synthesized. For HSV-1 protein VP22 (gene UL49), expression was checked by triplicate, 3-day ^3H thymidine proliferation assay using cornea-derived CD4+ clone 9447.28 specific for HSV-1 VP22 AA 199-211 (18) as responders (2×10^4/well), autologous 3,300 rad γ-irradiated PBMC as APC (10^5/well), and HSV-1 VP22 or controls expressed in the pEXP203 system.
We expressed proteins covering the large majority of the HSV-1 proteome using an in vitro bacterial expression system.

| Molecule | CD8 IFN-γ responses to HSV-1 polypeptide (ORF level) [1] | other results |
| --- | --- | --- |
| RL2/ICP0: HSV-1 protein RL2/ICP0 | elicit CD8 IFN-γ responses | CD8 IFN-γ responses to HSV-1 polypeptide (ORF level) ([1]; listed as ICP0): detected |
| RS1/ICP4: HSV-1 protein RS1/ICP4 | elicit CD8 IFN-γ responses | CD8 IFN-γ responses to HSV-1 polypeptide (ORF level) ([1]; listed as ICP4): detected |
| UL1: HSV-1 protein UL1/Glycoprotein L | elicit CD8 IFN-γ responses | HLA A*0101-bearing donors with CD8 T cells recognizing the ORF [1]: each HLA A*0101-bearing donor |
| UL25: HSV-1 protein UL25 | elicit CD8 IFN-γ responses | – |
| UL29: HSV-1 protein UL29/ICP8 | elicit CD8 IFN-γ responses | – |
| UL31: HSV-1 protein UL31 | elicit CD8 IFN-γ responses | – |
| UL37: HSV-1 protein UL37/ICP32 | elicit CD8 IFN-γ responses | – |
| UL41: HSV-1 protein UL41/vhs | elicit CD8 IFN-γ responses | – |
| UL47: HSV-1 protein UL47/VP13/14 | elicit CD8 IFN-γ responses | – |
| UL48: HSV-1 protein UL48/VP16/ICP25 | elicit CD8 IFN-γ responses | CD8 reactivity restricted by HLA A*0101 [1]: strong reactivity; HLA A*0101-bearing donors with CD8 T cells recognizing the ORF [1]: each HLA A*0101-bearing donor |
| UL49: HSV-1 protein UL49/VP22 | elicit CD8 IFN-γ responses | responses of VP22-specific CD4 T-cell clone to expressed protein [2]: strong, specific responses |
| UL54: HSV-1 protein UL54 ICP27 | elicit CD8 IFN-γ responses | – |
| US7: HSV-1 protein US7/Glycoprotein I | elicit CD8 IFN-γ responses | – |
| B1 | elicit CD8 IFN-γ responses | – |
| B2 | elicit CD8 IFN-γ responses | number of distinct restricting HLA alleles ([1]; CD8 recognition): 7; number of persons with CD8 recognition of the ORF ([1]; of 7 persons): 6; number of HLA-level screens in which the ORF was recognized ([1]; of 39 screens): 11; CD8 reactivity restricted by HLA A*0101 [1]: strong reactivity |
| B3 | elicit CD8 IFN-γ responses | – |
| B4 | elicit CD8 IFN-γ responses | – |
| B5 | elicit CD8 IFN-γ responses | CD8 IFN-γ responses to HSV-1 polypeptide (ORF level) ([1]; listed as ICP22): detected |
| B6 | elicit CD8 IFN-γ responses | – |
